The series in a line: logP determination by HPLC on a reversed-phase column (C 18), EEC Directive 79/831 Annex V.A8. The class given is physicochemical. How it is done:
The stated logP values were determined in accordance with EEC Directive 79/831 Annex V.A8 by HPLC (high performance liquid chromatography) on a reversed-phase column (C 18). Temperature: 43° C.

Setting [1] is: [b] LC-MS, acidic range, pH 2.7, 0.1% aqueous formic acid and acetonitrile.
The mark [2] stands for this setting: [c] LC-MS, neutral range, pH 7.8, 0.001 molar aqueous ammonium bicarbonate solution and acetonitrile.
Setting [3] is: method marker [a] (footnote not shown), isomer A / isomer B / isomer mixture as noted in the cell.
Where [4] appears, read: method marker [b], isomer A / isomer B / isomer mixture as noted in the cell.

Turning to `C/C(=N\OCC(C)(C)CON)c1ccc(C)c(C)n1` [XII-6], the logP ([a] acidic range, pH 2.3, 0.1% aqueous phosphoric acid and acetonitrile) was 0.98^[a]; the logP under setting [1] was 0.98^[b]; the logP under setting [2] is 2.94^[c]. Consider `C=C(CON=C(C)c1cccc(OC)c1)CON=C(C)c1cccc(C)n1` [compound 470], for which the logP (value marked [b]) is 4.46^[b]. `CC(=NOCC(CON=C(C)c1cc(C)cc(C)n1)C(C)(C)C)c1cc(C)cc(C)n1` (stereo not shown) [Compound 559]: the logP by setting is: (method marked [b] in Table 1) 3.60^[b]; (method marked [c] in Table 1) 7.36^[c].

In the case of `CC(=NOC(C)C(C)C(C)ON=C(C)c1cc(C)cc(C)n1)c1cc(C)cc(C)n1` (mixture of isomers) [Compound 790], the logP (value marked [a]) was 3.60^[a] and the logP (value marked [b]) was 4.44^[b]. Consider `CCOC(=O)C(C)(CON=C(C)c1nc(C)ccc1C)CON=C(C)c1nc(C)ccc1C` (stereo not shown) [compound 860], for which the logP by setting is: (value marked [b]) 3.03[b]; (value marked [c]) 4.72^[c]. In the case of `CC(=NOCCCCCCON=C(C)c1cccc(Cc2ccccc2)n1)c1cccc(C)n1` [compound 340], the logP (value marked [b]) is 6.86^[b]. As to `CC(=NOCc1cccc(CON=C(C)c2cccc(C)n2)c1)c1cccc(C)n1` [compound 704], the logP (method marked [b] in Table 1) is 4.17^[b]. Regarding `Cc1cccc(C(=NOCCCON=C(c2cccc(C)n2)C2CC2)C2CC2)n1` (mixture of isomers) [Compound 167], the logP under setting [3] was 2.85^[a]. On to `CC(=NOCCCCCCON=C(Cc1ccccc1)c1ncccc1C)c1cccc(C)n1` (single isomer, unassigned) [compound 531], for which the logP (value marked [b]) is given as 4.97^b] (isomer )A. As to `CC(=NOC(C)CC(C)ON=C(C)c1cc(C)cc(C)n1)c1cc(C)cc(C)n1` (stereo not shown) [Compound 557], the logP (method marked [b] in Table 1) was 2.39^[b] and the logP (method marked [c] in Table 1) is 6.63^[c].

For the molecule `COC(=NOCC(C)CON=C(OC)c1cccc(C)n1)c1cccc(C)n1` (stereo not shown) [Compound 835], the logP (value marked [a]) is 1.95^[a]. As for `C=C(CON=C(C)c1cccc(C)n1)CON=C(Cc1ccccc1)c1ncccc1C` [compound 349], under “value marked [b]”, the logP was 4.82^[b]. As for `CC(=NOCCC(C)ON=C(C)c1cccc(C)n1)c1cccc(C)n1` (stereo not shown) [Compound 295], the logP (value marked [b]) was 3.34^[b]. Regarding `C=C(CON=C(C)c1cccc(C)n1)CON=C(C)c1ncccc1Cl` (single isomer, unassigned) [compound 140], under setting [4], the logP was 4.40^[b] (isomer A). For the molecule `CCC1=NOC(CON=C(C)c2cc(C)cc(C)n2)(CON=C(C)c2cc(C)cc(C)n2)C1` (stereo not shown) [Compound 639], the logP (method marked [b] in Table 1) is 1.88^[b]. With `Cc1cc(C)nc(/C(N)=N/OCc2cccc(CO/N=C(\N)c3cc(C)cc(C)n3)c2)c1` [compound 726], the logP (method marked [b] in Table 1) is 3.63^[b]. With `Cc1cccnc1C(=NOCC(C)CON=C(c1ncccc1C)C(C)C)C(C)C` (mixture of isomers) [compound 103], under setting [3], the logP was 4.28^[a]. For `CC(=NOCC1(CON=C(C)c2cc(C)cc(C)n2)CC(c2cccc(Cl)c2)=NO1)c1cc(C)cc(C)n1` (stereo not shown) [compound 646], the logP (method marked [b] in Table 1) was 3.28^[b]. On to `CC(=NOCCCON=C(C)c1cc(C)n(C)n1)c1cc(C)n(C)n1` [compound 259], for which the logP (value marked [a]) is 2.70^[a]. On the same count and under the same terms, then `CC(=NOCCCON=C(C)c1ccc2c(n1)CCCC2)c1ccc2c(n1)CCCC2` [compound 305], with 3.96^[a]. For the molecule `CC(=NOCC(C)(C)CO/N=C(\C)c1cccc(C)n1)c1cc(C)cc(C)n1` [(1E/Z)-1-(4,6-dimethylpyridin-2-yl)ethanone O-[2,2-dimethyl-3-({[(1E)-1-(6-methylpyridin-2-yl)ethylidene]amino}oxy)propyl]oxime], the chromatographic logP (reversed-phase HPLC column (C 18), HCO2H, HPLC reversed-phase column (C 18), 43° C., read-out: logP (HCO2H)) amounted to 3.33.

Turning to `Cc1cc(C)nc(/C(N)=N/OCc2ccc(CO/N=C(\N)c3nc(C)cc(C)n3)cc2)n1` [compound 702], the logP (method marked [b] in Table 1) was 2.11^[b]. `CC(=NOC(=O)NCCCC(C)CNC(=O)ON=C(C)c1cc(C)cc(C)n1)c1cc(C)cc(C)n1` (stereo not shown) [compound 862]: the logP (value marked [a]) is 2.06^[a]. Consider `CC(=NOC1CCC(ON=C(C)c2cccc(C)n2)C1)c1cccc(C)n1` (mixture of isomers) [compound 797], for which the logP (value marked [a]) was 4.60^[a]. Take `C=C(CON=C(C)c1nc(OC)cc(OC)n1)CON=C(C)c1nc(OC)cc(OC)n1` [compound 565]: the logP runs as follows: (method marked [b] in Table 1) 4.10^[b]; (method marked [c] in Table 1) 4.10^[c]. With `COCc1nc(/C(N)=N/OCc2cccc(CO/N=C(\N)c3nc(COC)c(C)c(COC)n3)c2)nc(COC)c1C` [compound 713], the logP (method marked [b] in Table 1) was 2.06^[b]. Turning to `C=C(CON=C(C)c1cccc(C)n1)CON=C(C)c1nc2ccccc2s1` [compound 218], under setting [4], the logP was 4.79^[b]. On to `Cc1ccc(C(=NOCC(C)CON=C(c2ccc(C)c(C)n2)C(C)C)C(C)C)nc1C` (mixture of isomers) [compound 299], for which, for the setting “value marked [a]”, the logP is 4.82^[a]. For the molecule `CC(=NOCC(C)(C)CON=C(C)c1cccc(C)n1)c1cccc(Cl)c1` [Compound 483], the logP (value marked [b]) is 6.22^[b]. On the same count and under the same terms, then `COc1ccc(C(C)=NOCC(C)(C)CON=C(C)c2cc3ccccc3o2)cc1OC` [compound 415], with 5.42^[b].

Consider `CC(=NOCC(C)CON=C(C)c1cc(Cl)cc(C)n1)c1cc(Cl)cc(C)n1` (stereo not shown) [compound 792], for which the logP was 7.36^[a] (value marked [a]) and 7.36^[c] (value marked [c]). As for `C/C(=N\OCC(C)CON)c1cccc(-c2cccc(C)n2)n1` (racemic) [XII-5], the logP was 1.35^[b] under setting [1] and 3.36^[c] under setting [2].

For the molecule `CC(=NOCC1(CON=C(C)c2cc(C)cc(C)n2)CC(CC(C)C)=NO1)c1cc(C)cc(C)n1` (stereo not shown) [compound 641], the logP (method marked [b] in Table 1) is 2.66^[b]. As for `CC(=NOCCCCCCON=C(c1cccc(C)n1)C1CC1)c1cccc(C)n1` [compound 347], for the setting “value marked [b]”, the logP is 4.56^[b]. As for `C=C(CON=C(C)c1cccc(C)n1)CON=C(N)c1cc(C)cc(C)n1` [Compound 189], the logP under setting [4] is 2.92^[b].

In the case of `CCCC(=NOCCCON=C(CCC)c1ncccc1C)c1ncccc1C` (single isomer, unassigned) [compound 98], under setting [3], the logP was 4.83^[a] (isomer B). `C=C(CON=C(C)c1cccs1)CON=C(C)c1cccs1` (single isomer, unassigned) [compound 79]: the logP under setting [4] is 4,56^[b] (isomer A).

As to `CC(=NOCC(C)CON=C(C)c1ccnc(C)n1)c1ccnc(C)n1` (stereo not shown) [compound 168], the logP under setting [3] was 3.57^a]. Turning to `C=C(CO/N=C(\N)c1csc(C)n1)CO/N=C(\N)c1csc(C)n1` [Compound 27], the logP under setting [4] is 3.19^[b]. Take `Cc1cc(C)nc(C(N)=NOC/C=C/CON=C(N)c2cc(C)cc(C)n2)c1` (single isomer, unassigned) [compound 771]: the logP (value marked [b]) was 2.70^[b] (isomer A). On the same count and under the same terms, then `COc1cc(O)nc(C(C)=NOCC(C)CON=C(C)c2nc(OC)cc(OC)n2)n1` (stereo not shown) [compound 271], with 3.05^[b]. With `Cc1nc(/C(N)=N/OCc2cccc(CO/N=C(\N)c3nc(C)c(Cl)c(C)n3)c2)nc(C)c1Cl` [compound 715], the logP (method marked [b] in Table 1) was 3.29^[b]. Regarding `CC(=NOCC1(CON=C(C)c2cc(C)cc(C)n2)CCCC1)c1cc(C)cc(C)n1` [Compound 589], the logP by setting is: (method marked [b] in Table 1) 3.35^[b]; (method marked [c] in Table 1) 7.36^[c]. On to `CC(=NOCC(C)CON=C(C)c1cc(C(C)(C)C)ccn1)c1cc(C(C)(C)C)ccn1` (stereo not shown) [compound 104], for which, under setting [3], the logP is 5.88^[a].

Turning to `CCC(=NOCC(C)(C)CON=C(CC)c1cccc(C)n1)c1cccc(C)n1` [compound 883], the logP by setting is: (value marked [b]) 6.81^[b]; (value marked [c]) 7.36^[c].

For `CC(=NOCC(C)CON=C(C)c1nc(C)cc(C(F)(F)F)n1)c1nc(C)cc(C(F)(F)F)n1` (stereo not shown) [compound 273], under “value marked [b]”, the logP was 4.86^[b].

Consider `C=C(CON=C(C)c1cccc(C)n1)CON=C(CCC)c1ncccc1C` (single isomer, unassigned) [compound 535], for which the logP (method marked [b] in Table 1) is 4.46^[b] (isomer B). As for `CC(=NOCCC(C)ON=C(C)c1nc(C)ccc1C)c1nc(C)ccc1C` (single isomer, unassigned) [compound 759], the logP reads like this: (method marked [b] in Table 1) 3.12^[b]; (method marked [c] in Table 1) 5.02^[c]. As to `CC(=NOCCCC(=O)ON=C(C)c1cccc(C)n1)c1cccc(C)n1` [compound 171], the logP under setting [3] was 2.44^[a]. With `CC(=NOCCCCCCON=C(Cc1ccccc1)c1ncccc1C)c1cccc(C)n1` [compound 339], the logP (value marked [b]) was 5.90^[b] (isomer B).

`CCC(CC)(CON=C(C)c1cc(C)cc(C)n1)CON=C(C)c1cc(C)cc(C)n1` [Compound 811]: the logP is, setting by setting: (value marked [b]) 4.79^[b]; (value marked [c]) 7.36^[c]. For the molecule `Cc1cccc(C(CS(C)(=O)=O)=NOCC(C)CON=C(CS(C)(=O)=O)c2cccc(C)n2)n1` (stereo not shown) [compound 137], the logP under setting [3] was 3.08^[a]. The same measure, in the same setting: then `CC(=NOCC(C)CON=C(C)c1cccnc1Cl)c1cccnc1Cl` (mixture of isomers) [compound 107], with 3.87^[a]; and `CC(=NOCC(O)CON=C(C)c1ccccn1)c1ccccn1` (stereo not shown) [compound 3], with 1.50^[a].

With `C=C(CON=C(C)c1cccc(C)n1)CON=C(C)c1cc2ccccc2o1` [compound 404], the logP (value marked [b]) is 4.57^[b]. On to `CCOC(=O)c1cccc(C(C)=NOCCCON=C(C)c2cccc(C(=O)OCC)n2)n1` [compound 257], for which the logP (value marked [a]) was 4.06^[a]. On to `CC(=NOCC1(CON=C(C)c2nc(C)ccc2C)CC1)c1nc(C)ccc1C` (single isomer, unassigned) [compound 764], for which the logP (value marked [b]) is 2.17^[b] and the logP (value marked [c]) is 4.00^[c]. Turning to `CC(=NOCCCCON=C(C)c1cccc2ccccc12)c1cccc(C)n1` [compound 383], the logP (value marked [b]) is 5.19^[b]. With `CC(=NOCCCON=C(C)c1nc(C)cs1)c1nc(C)cs1` [compound 87], the logP under setting [3] was 4.22^[a].

For the origin of these results see patent US20100022559A1, “BISOXIMES AS FUNGICIDES” (BAYER CROPSCIENCE AG, priority 2006, published 2010).
